Measured values taken from patent US9302012B2, “Anti-bacterial siderophore-aminopenicillin conjugates” (University of Notre Dame Du Lac, priority 2012, dated 2016).
Converted amounts (≈) assume the structure as drawn. Where two headings read alike, the source gives them in different places.

Legend:
[1] = tested on: E. coli H1876 (fepA−, cir−, fiu−); test: Agar diffusion antibacterial susceptibility assay; type: cell-based, Escherichia coli; settings: for Diameter of growth inhibition zones: E. coli H1876 (fepA−, cir−, fiu−), −Fe agar, 37° C., 24 hours
Protocol: (§1) All liquids and media were sterilized by autoclaving (121° C., 15 min) before use. All aqueous solutions and media were prepared using distilled, deionized, and filtered water (Millipore Milli-Q Advantage A10 Water Purification System). Luria broth (LB) was purchased from VWR. Mueller-Hinton No. 2 broth (MHII broth; cation adjusted) was purchased from Sigma-Aldrich (St. Louis, Mo.). Iron-deficient (—Fe) MHII broth was prepared by adding 0.8 mL of a 1 mg/mL sterile aq. solution of 2,2′-bipyridine to 49.2 mL of MHII broth. Iron-rich (+Fe) MHII broth was prepared by adding 0.8 mL of a 1 mg/mL sterile aq. solution of FeCl3 to 49.2 mL of MHII broth. Mueller-Hinton No. 2 agar (MHII agar; HiMedia Laboratories) was purchased from VWR. Iron-deficient (−Fe) MHII agar was prepared by adding 0.5 mL of a 1 mg/mL sterile aq. solution of 2,2′-bipyridine to 34 mL of melted MHII agar with gentle mixing. Iron-rich (+Fe) MHII agar was prepared by adding 0.5 mL of a 1 mg/mL sterile aq. solution of FeCl3 to 34 mL of melted MHII agar with gentle mixing. See also Wencewicz, T. A. Dissertation, University of Notre Dame, Notre Dame, Ind., 2011, for relevant techniques.
(§2) Antibacterial Susceptibility Testing by the Agar Diffusion Assay.
(§3) Antibacterial activity of the compounds was determined by a modified Kirby-Bauer agar diffusion assay. Overnight cultures of test organisms were grown in LB broth for 18-24 h and standard suspensions of […] were prepared in saline solution (0.9% NaCl) according to a 0.5 BaSO4 McFarland Standard. This standardized suspension (0.1 mL) was added to 34 mL of sterile, melted agar (−Fe or +Fe) tempered to 47-50° C. After gentle mixing, the inoculated agar media was poured into a sterile plastic petri dish (145 mm×20 mm) and allowed to solidify near a flame with the lid ajar for about 30 min. Wells of 9.0 mm diameter were cut from the petri dish agar and filled with exactly 50 μL of the test sample solution. The petri dish was incubated at 37° C. for 18-24 h and the inhibition zone diameters were measured (mm) with an electronic caliper after 24 h.

[2] = tested on: P. aeruginosa PAO1; test: Agar diffusion antibacterial susceptibility assay; type: cell-based; settings: Pseudomonas aeruginosa, PAO1, 24 h, 37° C., read-out: Diameter of growth inhibition zones; for zone of inhibition at 100 µM: 50 μL of 0.1 mM solution; for zone of inhibition at 200 µM: 50 μL of 0.2 mM solution
Protocol: as §1, §2, §3

[3] = tested on: E. coli ATCC 25922; test: MIC90 by broth microdilution assay; type: cell-based, Escherichia coli; settings: for MIC90: Escherichia coli, ATCC25922, 20 h, E. coli ATCC 25922, 37° C., 20 h
Protocol: (§4) ^aMIC90 values (μM) were determined using the broth microdilution method in Mueller-Hinton broth No. 2 (MHII) with visual end point analysis according to the CLSI guidelines (Methods for Dilution Antimicrobial Susceptibility Tests for Bacteria that Grow Aerobically, 8th ed. (Villanova, Pa., USA), Clinical and Laboratory Standards Institute (CLSI), 2009, approved standard document M07-A7). ^bEach compound was tested in triplicate.
as §1
(§5) Determination of MIC90 Values by the Broth Microdilution Assay.
(§6) Antibacterial activity of the compounds was determined by measuring their minimum inhibitory concentrations (MIC90's) using the broth microdilution method according to the Clinical and Laboratory Standards Institute (CLSI, formerly the NCCLS) guidelines. Each well of a 96-well microtiter plate was filled with 50 μL of sterile broth media (−Fe or +Fe). Each test compound was dissolved in DMSO making a 20 mM solution, and then diluted with sterile broth media (−Fe or +Fe) to 400 or 800 μM. Exactly 50 μL of the compound solution was added to the first well of the microtiter plate and 2-fold serial dilutions were made down each row of the plate. Exactly 50 μL of bacterial inoculum (5×10^5 CFU/mL in broth media) was then added to each well giving a total volume of 100 μL/well. The plate was incubated at 37° C. for 20 h and then each well was examined for bacterial growth. The MIC90 was recorded as the lowest compound concentration (μM) required to inhibit 90% of bacterial growth as judged by turbidity of the culture media relative to a row of wells filled with a DMSO standard.

[4] = tested on: P. aeruginosa KW799/wt; test: MIC90 by broth microdilution assay; type: cell-based; settings: Pseudomonas aeruginosa, 20 h, 37° C.
Protocol: as §4, §1, §5, §6

[5] = tested on: P. aeruginosa Pa4; test: MIC90 by broth microdilution assay; type: cell-based; settings: Pseudomonas aeruginosa, PA4, 20 h, 37° C.
Protocol: as §4, §1, §5, §6

[6] = tested on: P. aeruginosa PAO1; test: MIC90 by broth microdilution assay; type: cell-based; settings: Pseudomonas aeruginosa, PAO1, 20 h, 37° C.
Protocol: as §4, §1, §5, §6

[7] = tested on: P. aeruginosa KW799/61; test: MIC90 by broth microdilution assay; type: cell-based; settings: Pseudomonas aeruginosa, KW799/61, 20 h
Protocol: as §4, §1, §5, §6

[8] = tested on: K. pneumoniae ATCC 8303 X68; test: MIC90 by broth microdilution assay; type: cell-based; settings: Klebsiella pneumoniae; for MIC90: ATCC8303, 20 h, K. pneumoniae ATCC 8303 X68, 37° C., 20 h
Protocol: as §4, §1, §5, §6

[9] = tested on: various wild type strains of P. aeruginosa; test: MIC by broth microdilution (text summary over strains); type: cell-based; settings: Pseudomonas aeruginosa, iron-deficient medium, read-out: MICs against various wild type strains of P. aeruginosa
Protocol: as §1

[10] = tested on: P. aeruginosa KW799/wt; test: Agar diffusion antibacterial susceptibility assay; type: cell-based, Pseudomonas aeruginosa; settings: 37° C.; for zone of inhibition at 100 µM: 50 μL of 0.1 mM solution
Protocol: as §1, §2, §3

[11] = tested on: P. aeruginosa Pa4; test: Agar diffusion antibacterial susceptibility assay; type: cell-based, Pseudomonas aeruginosa; parameters: key to Diameter of growth inhibition zones: partially clear inhibition zone/colonies in the inhibition zone; P: unclear inhibition zone/many colonies in the inhibition zone; indicates only a hint of growth inhibition detectable; settings: 37° C.; for zone of inhibition at 100 µM: 50 μL of 0.1 mM solution
Protocol: as §1, §2, §3

[12] = −Fe (iron-deficient) MHII broth
[13] = read-out: MIC (MIC90), P. aeruginosa KW799/61, +Fe (iron-rich) MHII broth, 37° C.
[14] = read-out: MIC (MIC90), P. aeruginosa KW799/61, −Fe (iron-deficient) MHII broth, 37° C.
[15] = −Fe agar, 50 μL of 0.2 mM solution, 24 hours

SMILES | MIC90 ([3]; +Fe (iron-rich) MHII broth) [µM] | MIC90 [3, 12] [µM] | MIC90 ([4]; +Fe (iron-rich) MHII broth) [µM] | MIC90 [4, 12] [µM] | MIC90 ([5]; +Fe (iron-rich) MHII broth) [µM] | MIC90 [5, 12] [µM] | MIC90 ([6]; +Fe (iron-rich) MHII broth) [µM] | MIC90 [6, 12] [µM] | MIC90 [7, 13] [µM] | MIC90 [7, 14] [µM] | MIC90 ([8]; +Fe (iron-rich) MHII broth) [µM] | MIC90 [8, 12] [µM] | MIC [9] [µM] | further results
CC(=O)Oc1cccc(C(=O)NCCCC(CCCNC(=O)c2cccc(OC(C)=O)c2OC(C)=O)(CCCNC(=O)c2cccc(OC(C)=O)c2OC(C)=O)NC(=O)CCC(=O)NC(C(=O)NC2C(=O)N3C2SC(C)(C)C3C(=O)O)c2ccccc2)c1OC(C)=O (stereo not shown) [Compound 10] | 150 (≈ 194 µg/mL) | 1.56 (≈ 2.02 µg/mL) | 33 (≈ 42.7 µg/mL) | 0.05 (≈ 0.0647 µg/mL) | 25 (≈ 32.4 µg/mL) | 0.39 (≈ 0.505 µg/mL) | 50 (≈ 64.7 µg/mL) | 0.39 (≈ 0.505 µg/mL) | 12.5 (≈ 16.2 µg/mL) | 0.067 (≈ 0.0867 µg/mL) | > 200 | > 100 | 0.05 to 0.39 (≈ 0.0647 to 0.505 µg/mL) | Diameter of growth inhibition zones ([1]; 50 μL of 0.1 mM solution): 0 mm; zone of inhibition at 100 µM ([2]; +Fe agar): 0 mm; zone of inhibition at 100 µM ([2]; −Fe agar): 16 mm; increase in activity against E. coli relative to ampicillin ([3]; MIC compared with parent drug): 8 fold; MIC ([8]; ATCC8303, stated as inactive, read-out: MIC against K. pneumoniae): > 100 µM; zone of inhibition at 100 µM ([10]; Pseudomonas aeruginosa, KW799/WT, 24 h, +Fe agar, read-out: Diameter of growth inhibition zones): 20 mm; zone of inhibition at 100 µM ([10]; Pseudomonas aeruginosa, KW799/WT, 24 h, −Fe agar, read-out: Diameter of growth inhibition zones): 24 mm; zone of inhibition at 100 µM ([11]; Pseudomonas aeruginosa, PA4, 24 h, +Fe agar, read-out: Diameter of growth inhibition zones): 0 mm; zone of inhibition at 100 µM ([11]; Pseudomonas aeruginosa, PA4, 24 h, −Fe agar, read-out: Diameter of growth inhibition zones): 18 mm
CC1(C)S[C@@H]2[C@H](NC(=O)[C@H](N)c3ccc(O)cc3)C(=O)N2[C@H]1C(=O)O [Amoxicillin, reference compound] | 4.17 (≈ 1.52 µg/mL) | 4.17 (≈ 1.52 µg/mL) | > 200 | > 200 | > 200 | > 100 | > 200 | > 100 | 0.46 (≈ 0.168 µg/mL) | 0.39 (≈ 0.143 µg/mL) | 100 (≈ 36.5 µg/mL) | > 100 | > 100 | Diameter of growth inhibition zones ([1]; 50 μL of 0.2 mM solution): 0 mm; zone of inhibition at 200 µM ([1]; Escherichia coli, 24 h, read-out: Diameter of growth inhibition zones): 0 mm; zone of inhibition at 200 µM ([2]; +Fe agar): 0 mm; zone of inhibition at 200 µM ([2]; −Fe agar): 0 mm; zone of inhibition at 200 µM ([10]; Pseudomonas aeruginosa, KW799/WT, 24 h, +Fe agar, 50 μL of 0.2 mM solution, read-out: Diameter of growth inhibition zones): 27 mm; Diameter of growth inhibition zones [10, 15]: 18p; zone of inhibition at 200 µM ([11]; Pseudomonas aeruginosa, PA4, 24 h, +Fe agar, 50 μL of 0.2 mM solution, read-out: Diameter of growth inhibition zones): 0 mm; Diameter of growth inhibition zones [11, 15]: h
